Legend:
[1] = target: T1, TBK1 (Homo sapiens, UniProt Q9UHD2); assay: In-vitro TBK1 kinase assay ([γ33]ATP filter-plate); format: biochemical; settings: text bins; read-out: IC50 for inhibition of the kinase activity of TBK1
T1 construct: His-tag; made in house; host or cells: Sf9 insect cells
T1 sequence (Q9UHD2 1-729): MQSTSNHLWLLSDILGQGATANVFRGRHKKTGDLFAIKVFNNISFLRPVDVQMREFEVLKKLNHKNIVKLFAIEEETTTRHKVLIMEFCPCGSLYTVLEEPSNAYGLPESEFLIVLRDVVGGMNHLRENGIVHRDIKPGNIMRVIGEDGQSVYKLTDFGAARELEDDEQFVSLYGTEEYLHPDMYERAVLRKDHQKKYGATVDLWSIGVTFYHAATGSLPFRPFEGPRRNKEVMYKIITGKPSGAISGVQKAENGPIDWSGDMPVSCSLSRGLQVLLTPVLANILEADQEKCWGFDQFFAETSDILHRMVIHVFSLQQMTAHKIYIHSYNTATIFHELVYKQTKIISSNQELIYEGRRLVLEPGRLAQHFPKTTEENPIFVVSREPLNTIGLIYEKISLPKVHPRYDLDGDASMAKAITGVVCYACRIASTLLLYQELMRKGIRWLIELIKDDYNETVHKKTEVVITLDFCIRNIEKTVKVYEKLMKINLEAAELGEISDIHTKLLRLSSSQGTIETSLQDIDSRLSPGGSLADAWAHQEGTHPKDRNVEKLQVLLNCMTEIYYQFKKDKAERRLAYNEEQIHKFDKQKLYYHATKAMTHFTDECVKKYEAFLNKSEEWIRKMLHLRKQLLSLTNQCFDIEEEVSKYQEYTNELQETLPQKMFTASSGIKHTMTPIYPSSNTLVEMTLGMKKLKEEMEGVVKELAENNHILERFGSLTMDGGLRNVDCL
Summary of the method: (§1)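 Phosphorylation of casein or myelin basic protein was counted by P-81 filter capture after 30-45 min reactions stopped with phosphoric acid, with counts normalized to DMSO after background subtraction. ATP was twice Km: 60 μM for TBK1 and 32 μM for IKKε, plus [γ33]ATP. Sf9-expressed His-tag enzymes were used at normal/sensitized levels of 0.1/0.02 μg/ml (TBK1) and 0.1/0.015 μg/ml (IKKε).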

[2] = target: T2, IKKε (Homo sapiens, UniProt Q14164); assay: In-vitro IKKε kinase assay ([γ33]ATP filter-plate); format: biochemical; settings: text bins; read-out: IC50 for inhibition of the kinase activity of IKKε
T2 construct: His-tag; made in house; host or cells: Sf9 insect cells
T2 sequence (Q14164 1-716): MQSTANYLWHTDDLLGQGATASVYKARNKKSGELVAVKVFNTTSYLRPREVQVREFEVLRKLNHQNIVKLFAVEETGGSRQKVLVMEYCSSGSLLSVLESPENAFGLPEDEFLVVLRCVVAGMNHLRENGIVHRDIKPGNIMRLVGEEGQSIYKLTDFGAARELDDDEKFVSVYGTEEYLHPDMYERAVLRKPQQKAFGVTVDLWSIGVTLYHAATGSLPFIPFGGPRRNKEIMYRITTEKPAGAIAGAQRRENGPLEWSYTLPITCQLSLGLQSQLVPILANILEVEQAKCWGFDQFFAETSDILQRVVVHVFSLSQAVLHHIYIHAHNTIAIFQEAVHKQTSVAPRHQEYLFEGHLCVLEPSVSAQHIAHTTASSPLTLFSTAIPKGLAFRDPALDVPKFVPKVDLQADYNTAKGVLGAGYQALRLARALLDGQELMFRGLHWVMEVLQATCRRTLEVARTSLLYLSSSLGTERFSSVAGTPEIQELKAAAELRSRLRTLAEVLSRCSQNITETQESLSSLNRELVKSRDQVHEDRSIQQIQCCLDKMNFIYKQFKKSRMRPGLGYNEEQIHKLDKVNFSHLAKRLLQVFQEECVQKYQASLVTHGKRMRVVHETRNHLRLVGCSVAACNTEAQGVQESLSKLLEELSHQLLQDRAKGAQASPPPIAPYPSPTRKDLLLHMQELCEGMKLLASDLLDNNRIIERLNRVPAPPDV
Summary of the method: as §1

SMILES	IC50 [1] [nM]	IC50 [2] [nM]
CN1CCN(c2ccc(Nc3nccc(-c4ccc(OC5CCNC5)c(C#N)c4)n3)cc2)CC1 (centres unmarked) [Example 90, 5-(2-{[4-(4-methylpiperazin-1-yl)phenyl]amino}pyrimidin-4-yl)-2-(pyrrolidin-3-yloxy)benzonitrile]	10 to 100	5 to 50
N#Cc1cc(-c2ccnc(Nc3ccc(N4CCOCC4)cc3)n2)ccc1NC(=O)C1C[C@@H]1F (stereo partly drawn) [Example 216, (2S)-N-[2-cyano-4-(2-{[4-(morpholin-4-yl)phenyl]amino}pyrimidin-4-yl)phenyl]-2-fluorocyclopropane-carboxamide]	< 10	< 5
COc1cc(Nc2nccc(-c3ccc(OC4CCN(C(=O)[C@H](C)O)CC4)c(C#N)c3)n2)ccc1C(=O)NCCCN(C)C [compound 376, 4-({4-[3-cyano-4-({1-[(2S)-2-hydroxypropanoyl]piperidin-4-yl}oxy)phenyl]pyrimidin-2-yl}amino)-N-[3-(dimethylamino)propyl]-2-methoxybenzamide]	< 10	< 5
COc1ccc(-c2ccnc(Nc3ccc(S(=O)(=O)NCCCN)c(OC)c3)n2)cc1C#N [compound 383, N-(3-Aminopropyl)-4-{[4-(3-cyano-4-methoxyphenyl)pyrimidin-2-yl]amino}-2-methoxybenzene-sulfonamide]	10 to 100	5 to 50
N#Cc1cc(-c2ccnc(Nc3ccc(N4CCOCC4)cc3)n2)ccc1OC1CCOC1 (centres unmarked) [Example 261, 5-(2-{[4-(Morpholin-4-yl)phenyl]amino}pyrimidin-4-yl)-2-(tetrahydrofuran-3-yloxy)benzonitrile]	< 10	< 5
N#Cc1cc(-c2ccnc(Nc3ccc(N4CCOCC4)cc3)n2)ccc1OC1CCN(C(=O)C2(N)CC2)C1 (centres unmarked) [Example 189, 2-({1-[(1-aminocyclopropyl)carbonyl]pyrrolidin-3-yl}oxy)-5-(2-{[4-(morpholin-4-yl)phenyl]amino}pyrimidin-4-yl)benzonitrile]	100 to 500	50 to 500
COc1cc(Nc2nccc(-c3ccc(OC4CCN(C(=O)[C@H](C)O)C4)c(C#N)c3)n2)ccc1N1CCOCC1 (stereo partly drawn) [Example 116, 2-({1-[(2S)-2-hydroxypropanoyl]pyrrolidin-3-yl}oxy)-5-(2-{[3-methoxy-4-(morpholin-4-yl)phenyl]amino}pyrimidin-4-yl)benzonitrile]	< 10	5 to 50
COc1ccc(-c2ccnc(Nc3ccc(N4CCOCC4)c(Cl)c3)n2)cc1C#N [Example 98]	< 10	< 5
CN(C)c1ccc(Nc2nccc(-c3cccc(C#N)c3)n2)cc1 [Example 286, 3-(2-{[4-(Dimethylamino)phenyl]amino}pyrimidin-4-yl)benzonitrile]	100 to 500	50 to 500
COc1ccc(Nc2nc(-c3cccc(C#N)c3)c3nc[nH]c3n2)cc1OC [compound 390, 3-{2-[(3,4-Dimethoxyphenyl)amino]-3H-purin-6-yl}benzonitrile]	100 to 500	50 to 500
N#Cc1cc(-c2ccnc(Nc3ccc(N)cc3)n2)ccc1OC1CCOCC1 [Example 184, 5-{2-[(4-Aminophenyl)amino]pyrimidin-4-yl}-2-(tetrahydro-2H-pyran-4-yloxy)benzonitrile]	< 10	< 5
CN1CCN(S(=O)(=O)c2ccc(Nc3nccc(-c4ccc(OC5CCOCC5)c(C#N)c4)n3)cc2)CC1 [Example 284, 5-[2-({4-[(4-methylpiperazin-1-yl)sulfonyl]phenyl}amino)pyrimidin-4-yl]-2-(tetrahydro-2H-pyran-4-yloxy)benzonitrile]	< 10	5 to 50
N#Cc1cc(-c2ccnc(Nc3ccc(N4CCOCC4)cc3)n2)ccc1OCC1CCNC1 (centres unmarked) [compound 456, 5-(2-{[4-(morpholin-4-yl)phenyl]amino}pyrimidin-4-yl)-2-(pyrrolidin-3-ylmethoxy) benzonitrile]	< 10	5 to 50
